The values below come from patent US20230121721A1, “MONOACYLGLYCEROL LIPASE INHIBITORS” (STICHTING HET NEDERLANDS KANKER INSTITUUT - ANTONI VAN …, priority 2020, published 2023).

The structures appear in SMILES notation. Some results are limits rather than exact numbers.

What is called IC50 is the concentration that inhibits the measured activity by half.

The assay concerns the target T1, hMAGL (MAGL-overexpressing membrane preparations from transiently transfected HEK293T cells) (Homo sapiens, UniProt Q99685).
T1 construct: expressed in transfected cells; host or cells: HEK293T (transient transfection), membrane preparations
T1 sequence (Q99685 1-303): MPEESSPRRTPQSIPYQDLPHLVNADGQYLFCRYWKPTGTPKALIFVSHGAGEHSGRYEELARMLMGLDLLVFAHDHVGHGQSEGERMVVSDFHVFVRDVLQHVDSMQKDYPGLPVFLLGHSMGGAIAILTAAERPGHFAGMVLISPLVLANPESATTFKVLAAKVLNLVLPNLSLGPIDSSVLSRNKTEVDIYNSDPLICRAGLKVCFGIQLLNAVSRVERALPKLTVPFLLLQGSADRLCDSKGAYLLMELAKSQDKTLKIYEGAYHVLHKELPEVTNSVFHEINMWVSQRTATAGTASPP
The assay can be described thus: MAGL activity assay (2-AG hydrolysis, glycerol coupled to Amplifu Red fluorescence). It counts as biochemical. The conditions noted are these: hMAGL-overexpressing HEK293T membranes, 25 μM 2-AG substrate, 20 min. inhibitor incubation. An excerpt: The MAGL activity assay is based on the production of glycerol from 2-arachidonoylglycerol (2-AG) hydrolysis by MAGL-overexpressing membrane preparations from transiently transfected HEK293T cells, as previously reported in van der Wel T et al., “A natural substrate-based fluorescence assay for inhibitor screening on diacylglycerol lipase”, J Lipid Res., 2015, 56(4), 927-35. The produced glycerol is coupled to the oxidation of commercially available Amplifu™ Red (Sigma-Aldrich Chemie N.V., Zwijndrecht, Netherlands) via a multi-enzyme cascade, resulting in a fluorescent signal from the dye resorufin.
Standard assays were performed in HEMNB buffer (50 mM HEPES pH 7.4, 1 mM EDTA, 5 mM MgCl2, 100 mM NaCl, 0.5% (w/v) BSA) in black, flat bottom 96-wells plates. Final protein concentration of membrane preparations from overexpressing hMAGL HEK293T cells was 1.5 μg/mL (0.3 μg per well). Inhibitors were added from 40× concentrated DMSO stocks. […] Final assay concentrations: 0.2 U/mL GK, GPO and HRP, 0.125 mM ATP, 10 μM Amplifu™ Red, 25 μM 2-AG, 5% DMSO, 0.5% ACN in a total volume of 200 μL.
For IC50 determination, the MAGL-overexpressing membranes were incubated with different inhibitor concentrations. Slopes of corrected fluorescence in time were determined in the linear interval of t=10 to t=35 min and then scaled to the corrected positive control of hMAGL-overexpressing membranes treated with vehicle (DMSO) as a 100% activity reference point. The data was exported to GraphPad Prism 5.0 and analysed in a non-linear dose-response analysis with variable slope.
`CCOC(=O)C[S+]([O-])c1ccc(C(=O)N2CCN(c3cccc(F)c3)[C@@H](C)C2)cc1[N+](=O)[O-]` (stereo partly drawn) [Example 25, Ethyl 2-((4-((S)-4-(3-fluorophenyl)-3-methylpiperazine-1-carbonyl)-2-nitrophenyl)sulfinyl)acetate] showed an IC50 of 155 nM.

For `CCC(C)OC(=O)C[S+]([O-])c1ccc(C(=O)N2CCN(c3cccc(Cl)c3)[C@H](C)[C@H]2C)cc1Cl` (mixture of isomers) [Example 57, (±) sec-Butyl 2-((2-chloro-4-(4-(3-chlorophenyl)-trans-2,3-dimethylpiperazine-1-carbonyl)phenyl)sulfinyl)acetate], the concentration for half-maximal inhibition (IC50) is 3.89 nM.

Regarding `C[C@H]1[C@H](C)N(c2cccc(Cl)c2)CCN1C(=O)c1ccc([S+]([O-])CC(=O)OC2CCOCC2)c(Cl)c1` (mixture of isomers) [Example 67, (±) tetraHydro-2H-pyran-4-yl 2-((2-chloro-4-(4-(3-chlorophenyl)-trans-2,3-dimethylpiperazine-1-carbonyl)phenyl)sulfinyl)acetate], half-maximal inhibition (IC50) was put at 12.9 nM.

With `C[C@@H]1CN(C(=O)c2ccc([S+]([O-])CC(=O)OCCCO)c([N+](=O)[O-])c2)CCN1c1cccc(Cl)c1` (stereo partly drawn) [Example 41, 3-Hydroxypropyl 2-((4-((R)-4-(3-chlorophenyl)-3-methylpiperazine-1-carbonyl)-2-nitrophenyl)sulfinyl)acetate], half-maximal inhibition (IC50) was put at 34.7 nM.

As for `COCC(C)OC(=O)C[S+]([O-])c1ccc(C(=O)N2CCN(c3cccc(Cl)c3)[C@@H](C)[C@@H]2C)cc1Cl` (mixture of isomers) [Example 66, (±) 1-Methoxypropan-2-yl 2-((2-chloro-4-(4-(3-chlorophenyl)-trans-2,3-dimethylpiperazine-1-carbonyl)phenyl)sulfinyl)acetate], half-maximal inhibition (IC50) was put at 46.8 nM.

The molecule `C[C@H]1[C@H](C)N(c2cccc(Cl)c2)CCN1C(=O)c1ccc([S+]([O-])CC(=O)c2ccc(C#N)cn2)c(Cl)c1` (mixture of isomers) [Example 105, (±) 6-(2-((2-Chloro-4-(4-(3-chlorophenyl)-trans-2,3-dimethylpiperazine-1-carbonyl)phenyl)sulfinyl)acetyl)nicotinonitrile] showed a concentration for half-maximal inhibition (IC50) of 10 nM.

Consider `CCOC(=O)C[S+]([O-])c1ccc(C(=O)N2CCN(c3cccc(Cl)c3)[C@H](C)[C@H]2C)cc1C(F)(F)F` (mixture of isomers) [Example 107, (±) Ethyl 2-((4-(4-(3-chlorophenyl)-trans-2,3-dimethylpiperazine-1-carbonyl)-2-(trifluoromethyl)phenyl)sulfinyl)acetate], for which the IC50 was 14.8 nM.

On to `CCOC(=O)C[S+]([O-])c1ccc(C(=O)N2CCN(c3cccc(Cl)c3)C(C)(C)C2)cc1F` (centres unmarked) [Example 47, Ethyl 2-((4-(4-(3-chlorophenyl)-3,3-dimethylpiperazine-1-carbonyl)-2-fluorophenyl)sulfinyl)acetate], for which inhibition was half-maximal at 46.8 nM (IC50).

With `CCOC(=O)C[S+]([O-])c1ccc(C(=O)N2CCN(c3cc(Cl)ccn3)[C@@H](C)[C@@H]2C)cc1Cl` (mixture of isomers) [Example 71, (±) Ethyl 2-((2-chloro-4-(-4-(4-chloropyridin-2-yl)-trans-2,3-dimethylpiperazine-1-carbonyl)phenyl)sulfinyl)acetate], the half-inhibitory concentration (IC50) was 8.71 nM.

Take `CCOC(=O)C[S+]([O-])c1ccc(C(=O)N2CCN(c3cccc(-c4ccccc4)c3)CC2)cc1[N+](=O)[O-]` (centres unmarked) [Example 20, Ethyl 2-((4-(4-([1,1′-biphenyl]-3-yl)piperazine-1-carbonyl)-2-nitrophenyl)sulfinyl)acetate]: inhibition was half-maximal at 1350 nM (IC50).

`CCOC(=O)C[S+]([O-])c1ccc(C(=O)N2CCN(c3ccnc(Cl)c3)[C@@H](C)[C@@H]2C)cc1Cl` (mixture of isomers) [Example 69, (±) Ethyl 2-((2-chloro-4-(-4-(2-chloropyridin-4-yl)-trans-2,3-dimethylpiperazine-1-carbonyl)phenyl)sulfinyl) acetate] had an IC50 of 87.1 nM.

Take `C[C@H]1[C@H](C)N(c2cccc(Cl)n2)CCN1C(=O)c1ccc([S+]([O-])CC(=O)C(C)(F)F)c(Cl)c1` (mixture of isomers) [Example 81, (±) 1-((2-chloro-4-(4-(6-chloropyridin-2-yl)-trans-2,3-dimethylpiperazine-1-carbonyl)phenyl)sulfinyl)-3,3-difluorobutan-2-one]: 0.851 nM corresponded to half-maximal inhibition (IC50).

`C[C@H]1[C@H](C)N(c2cccc(Cl)c2)CCN1C(=O)c1ccc([S+]([O-])CC(=O)c2ccc(F)c(C(F)(F)F)c2)c(Cl)c1` (mixture of isomers) [Example 92, (±) 2-((2-Chloro-4-(4-(3-chlorophenyl)-trans-2,3-dimethylpiperazine-1-carbonyl)phenyl)sulfinyl)-1-(4-fluoro-3-(trifluoromethyl)phenyl)ethan-1-one] had an IC50 of more than 10000 nM.

As to `C[C@@H]1[C@@H](C)N(c2cccc(Cl)c2)CCN1C(=O)c1ccc([S+]([O-])CC(=O)OC2CCC2)c(Cl)c1` (mixture of isomers) [Example 58, (±) Cyclobutyl 2-((2-chloro-4-(4-(3-chlorophenyl)-trans-2,3-dimethylpiperazine-1-carbonyl)phenyl)sulfinyl)acetate], the IC50 was 4.17 nM.

Molecule `C[C@@H]1[C@@H](C)N(c2cccc(Cl)c2)CCN1C(=O)c1ccc([S+]([O-])CC(=O)OC2CCCCC2)c(Cl)c1` (mixture of isomers) [Example 60, (±) Cyclohexyl 2-((2-chloro-4-(4-(3-chlorophenyl)-trans-2,3-dimethylpiperazine-1-carbonyl)phenyl)sulfinyl)acetate] gave a half-maximal inhibitory concentration (IC50) of 2.95 nM.

As to `CCOC(=O)C[S+]([O-])c1ccc(C(=O)N2CCN(c3cccc(Cl)n3)[C@@H](C)[C@@H]2C)cc1Cl` (mixture of isomers) [Example 70, (±) Ethyl 2-((2-chloro-4-(-4-(6-chloropyridin-2-yl)-trans-2,3-dimethylpiperazine-1-carbonyl)phenyl)sulfinyl)acetate], 9.12 nM corresponded to half-maximal inhibition (IC50).

The molecule `C[C@H]1[C@H](C)N(c2cccc(Cl)c2)CCN1C(=O)c1ccc([S+]([O-])CC(=O)c2ccc(F)cc2)c(Cl)c1` (mixture of isomers) [Example 86, (±) 2-((2-Chloro-4-(4-(3-chlorophenyl)-trans-2,3-dimethylpiperazine-1-carbonyl)phenyl)sulfinyl)-1-(4-fluorophenyl)ethan-1-one] showed an IC50 of 1910 nM.

As for `C[C@H]1[C@H](C)N(c2cccc(Cl)c2)CCN1C(=O)c1ccc([S+]([O-])CC(=O)c2ncccn2)c(Cl)c1` (mixture of isomers) [Example 102, (±) 2-((2-Chloro-4-(4-(3-chlorophenyl)-trans-2,3-dimethylpiperazine-1-carbonyl)phenyl)sulfinyl)-1-(pyrimidin-2-yl)ethan-1-one], the IC50 is 28.2 nM.

`CCOC(=O)CSc1ccc(C(=O)N2CCN(c3cccc(C)c3)[C@@H](C)C2)cc1[N+](=O)[O-]` [Example 5, Ethyl (S)-2-((4-(3-methyl-4-(m-tolyl)piperazine-1-carbonyl)-2-nitrophenyl)thio)acetate] showed an IC50 of more than 10000 nM.

As to `CCOC(=O)CS(=O)(=O)c1ccc(C(=O)N2CCN(c3cccc(Cl)c3)[C@H](C)[C@H]2C)cc1Cl` (racemic) [Example 53, (±) Ethyl 2-((2-chloro-4-(4-(3-chlorophenyl)-trans-2,3-dimethylpiperazine-1-carbonyl)phenyl)sulfonyl)acetate], the IC50 is 339 nM.

`C[C@H]1[C@H](C)N(c2cccc(Cl)c2)CCN1C(=O)c1ccc([S+]([O-])CC(=O)c2ccccc2F)c(Cl)c1` (mixture of isomers) [Example 95, (±) 2-((2-Chloro-4-(4-(3-chlorophenyl)-trans-2,3-dimethylpiperazine-1-carbonyl)phenyl)sulfinyl)-1-(2-fluorophenyl)ethan-1-one]: the IC50 is 1620 nM.

On to `COCCOC(=O)C[S+]([O-])c1ccc(C(=O)N2CCN(c3cccc(Cl)c3)[C@@H](C)[C@@H]2C)cc1Cl` (mixture of isomers) [Example 65, (±) 2-Methoxyethyl 2-((2-chloro-4-(4-(3-chlorophenyl)-trans-2,3-dimethylpiperazine-1-carbonyl)phenyl)sulfinyl)acetate], for which the IC50 was 9.12 nM.

The molecule `C[C@H]1[C@H](C)N(c2cccc(Cl)c2)CCN1C(=O)c1ccc([S+]([O-])CC(=O)c2cccc(F)c2)c(Cl)c1` (mixture of isomers) [Example 87, (±) 2-((2-Chloro-4-(4-(3-chlorophenyl)-trans-2,3-dimethylpiperazine-1-carbonyl)phenyl)sulfinyl)-1-(3-fluorophenyl)ethan-1-one] had an IC50 of more than 10000 nM.
